Measurements as given in US20060029548A1, “Methods of diagnosing, monitoring and treating pulmonary diseases” (priority 2004, published 2006).
Values joined by “and” are separate entries in the source; they are usually repeats but may differ in a detail not shown here. Equal values may be shown once.

Columns and labels:
[1] = system: human subjects (airway responsiveness, FEV1); test: Inhalation challenge test: airway responsiveness measured as change in FEV1 (PD20); format: in vivo; conditions: for PD20 geometric mean: non-responders excluded; for PD20: individual subjects
Text: (§1) The clinical study described in Examples 2-4 was randomized, double blind, crossover, and controlled. Each subject attended the laboratory on three occasions. Procedures on the initial screening visit included obtaining information about the study and a number of investigations in the following order: medical history, lung function, reversibility and skin prick testing. At visit 2 and 3, separated by 2-7 days, the subjects were subjected to either an ATP or AMP challenge in a randomized fashion such that, by the end of the study, each patient had been tested with both compounds. Before, immediately after, and 30 minutes after the challenge, lung function and Borg score for dyspnoea were determined, and symptoms other than dyspnoea were recorded.
In the clinical study described in Examples 2-4, spirometric tests were performed using a dry spirometer (Vitalograph Ltd., Buckingham, England) and the best value of the three expiratory manoeuvers was expressed as liters and percentage of the predicted.
(§2) For the tests described in Examples 2-4, ATP and AMP (Sigma, Gillingham, Dorset, England) were dissolved freshly in normal saline solution to produce a range of doubling concentrations from 0.227-929 umol/ml for ATP and from 0.138-1152 umol/ml for AMP and immediately used for bronchial challenge. The solutions were administered using a breath-activated dosimeter (Mefar, Bovezzo, Italy) with an output of 10 ul per inhalation [Prieto et al. (2003) Chest 123:993-997]. The subjects, while wearing a nose clip, inhaled (via a mouthpiece) five breaths of normal saline, followed by sequential doubling concentrations of either ATP or AMP from functional residual capacity to total lung capacity. FEV1 was measured from two minutes after the fifth inhalation of normal saline until there was a fall in FEV1 of ≧20% of its value recorded after saline inhalation or until maximal concentration of either ATP or AMP was inhaled. The provocative dose causing a 20% decrease in FEV1 (PD20) was calculated by interpolation of the logarithmic dose response curve.
All data from the analyses described in Examples 2-4 were performed with a software package (GraphPad Prism Software, Inc., USA). The significance of differences among groups was assessed by Student's t-test, and analysis of categorical variables was examined by Chi-square test. Pearson's correlation coefficient and linear regression analysis were used to analyze the relationship between the percentage decreases in FEV1 and Borg score. The PD20 values for ATP and AMP were logarithmically transformed to normalize their distribution and presented as geometric means. All other numerical variables were expressed as the mean±SEM and significance was defined as p<0.05.

[2] = system: human subjects (perception of dyspnoea); test: Borg score for dyspnoea before and after inhalation challenge; format: in vivo; design: key to ΔBorg (change in Borg score before and after challenge): Borg score after minus before challenge; 0–10 scale
Text: as §1
The modified Borg scale used to quantitate dyspnoea in the clinical study described in Examples 2-4 was a category scale in which words describing degrees of breathlessness were anchored to numbers between 0 and 10. The subjects were asked to select a number whose corresponding words most appropriately described their perception of breathlessness. The change in dyspnoea was expressed as ΔBorg, which was the difference in Borg score before and after the challenge [Rutgers et al. (2000) Eur. Respir. J. 16:486-490; Burdon et al. (1982) Am. Rev. Respir. Dis. 126:825-828]. Terms and associated numbers used in assessing Borg score were as follows: 0, “nothing at all”; 0.5, “very, very slight”; 1, “very slight”; 2, “slight”; 3, “moderate”; 4, “somewhat severe”; 5, “severe”; 7, “very severe”; 9, “very, very severe (almost maximal)”; and 10, “maximal” [Burdon et al. (1982)].
as §2

SMILES: Nc1ncnc2c1ncn2[C@@H]1O[C@H](COP(=O)(O)OP(=O)(O)OP(=O)(O)O)[C@@H](O)[C@H]1O [ATP, adenosine 5′-triphosphate]
- patients with bronchoconstriction ([1]; 19 smoking subjects (seven healthy smokers, seven smokers at risk, five COPD)): 42%
- mean PD20 ([1]; ATP-responsive COPD patients): 178.5 µmol/mL
- PD20 geometric mean ([1]; COPD (n = 7)): 178.5 µmol/mL
- patients who responded to challenge ([1]; COPD patients): 67%
- PD20 geometric mean (range) ([1]; all subjects who had airway responsiveness): 72.9 (2.9-808.7) umol/ml
- PD20 geometric mean ([1]; asthma (n = 10)): 48.7 µmol/mL
- mean PD20 ([1]; asthma patients): 48.7 µmol/mL
- response to challenge ([1]; healthy non-smokers, no change in FEV1 or reduction of less than 20%): negative
- control subjects who responded ([1]; healthy smoker control subjects): three of seven
- subjects who responded to challenge ([1]; healthy smokers): 57%
- PD20 geometric mean ([1]; healthy smokers (n = 7)): 197.0 µmol/mL
- PD20 ([1]; COPD (n = 7)): 2.9 μmol/ml and >929 μmol/ml (2×) and 242.8 μmol/ml and 72.0 μmol/ml and 163.1 μmol/ml and 808.7 μmol/ml
- PD20 ([1]; asthma (n = 10)): 44.8 µmol/mL and 23.6 µmol/mL and 20.9 µmol/mL and 67.9 µmol/mL and 92.2 µmol/mL and 160.6 µmol/mL and 18.1 µmol/mL and 28.1 µmol/mL and 137.0 µmol/mL and 49.0 µmol/mL
- PD20 ([1]; healthy smokers (n = 7)): 303.4 μmol/ml and >929 μmol/ml (3×) and 70.2 μmol/ml and 442.4 μmol/ml and 159.9 μmol/ml
- PD20 ([1]; non-smokers (n = 10), provocative dose causing 20% decrease in FEV1): >929 µmol/mL
- PD20 ([1]; smokers at risk (n = 7)): >929 μmol/ml (6×) and 52.8 μmol/ml
- PD20 geometric mean ([1]; non-smokers (n = 10)): >929 µmol/mL
- subjects responsive to challenge ([1]; of the 40 subjects in the study): 47.5%
- patients who responded to challenge ([1]; patients with asthma): 100%
- ΔFEV1 (decrease in FEV1 as percentage of baseline FEV1) ([1]; patients with asthma): 29%
- subjects who responded to challenge ([1]; smokers at risk): 14%
- PD20 geometric mean ([1]; smokers at risk (n = 7)): 52.8 µmol/mL
- ΔBorg (change in Borg score before and after challenge) ([2]; COPD): 2.6
- Borg score after challenge (at PD20) ([2]; COPD patients): 2.7
- Borg score after challenge ([2]; healthy smokers): 1.3
- Borg score after challenge (at PD20) ([2]; patients with asthma): 3.3
- ΔBorg (change in Borg score before and after challenge) ([2]; patients with asthma): 3.2
- Borg score after challenge ([2]; smokers at risk): 1.9
